The results in this text go back to PMC9705314, “Characterization of a new potent and long-lasting single chain peptide agonist of RXFP1 in cells and in vivo translational models” (Scientific Reports, 2022).

*1 amine or outer side, *2 acyl side, *3 side chain or, on linkers, in order; H or OH if unused. Where a SMILES comes first, the peptide text is derived from it. Side-chain parts run from the residue outwards. [ ]: non-standard residue; d: D form. The star is where a group is joined. γGlu = O=C(O)[C@H](CCC(=O)[*:2])N[*:1]; Stearoyl = CCCCCCCCCCCCCCCCCC(=O)*; Nle = CCCC[C@H](N)C(=O)O; AEEA = NCCOCCOCC(=O)O; Aib = CC(C)(N)C(=O)O

As a reminder, the Emax is the size of the effect at its maximum, as opposed to the concentration needed. By EC50 is commonly meant the concentration needed to bring the measured effect to its halfway point. Read a high EC50 as a need for much substance.

Format in all cases: cell-based
In assay [1] the target is T1, RXFP1 (Homo sapiens, UniProt Q9HBX9).
T1 sequence (Q9HBX9 1-757): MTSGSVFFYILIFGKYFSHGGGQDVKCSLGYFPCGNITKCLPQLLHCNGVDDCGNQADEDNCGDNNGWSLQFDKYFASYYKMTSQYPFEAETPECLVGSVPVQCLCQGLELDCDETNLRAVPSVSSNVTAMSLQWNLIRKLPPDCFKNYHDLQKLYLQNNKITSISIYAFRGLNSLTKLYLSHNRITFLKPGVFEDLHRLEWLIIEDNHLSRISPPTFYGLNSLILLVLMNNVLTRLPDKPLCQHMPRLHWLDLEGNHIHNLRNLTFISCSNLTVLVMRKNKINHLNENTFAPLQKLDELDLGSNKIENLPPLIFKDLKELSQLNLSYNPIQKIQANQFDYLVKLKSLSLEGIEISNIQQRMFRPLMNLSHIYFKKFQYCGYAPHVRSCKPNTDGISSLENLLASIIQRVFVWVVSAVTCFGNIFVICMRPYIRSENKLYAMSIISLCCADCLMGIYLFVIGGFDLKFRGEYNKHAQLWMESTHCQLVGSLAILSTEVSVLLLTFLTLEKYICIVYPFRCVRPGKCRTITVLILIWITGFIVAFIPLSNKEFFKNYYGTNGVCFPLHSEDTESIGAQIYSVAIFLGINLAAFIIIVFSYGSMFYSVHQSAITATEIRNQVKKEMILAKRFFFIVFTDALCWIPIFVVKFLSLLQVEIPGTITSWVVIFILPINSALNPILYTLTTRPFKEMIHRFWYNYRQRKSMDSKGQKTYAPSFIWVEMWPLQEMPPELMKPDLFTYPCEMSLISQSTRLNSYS
Description: cAMP HTRF assay in OVCAR5 cells (endogenous RXFP1). More on the design: they express significant endogenous levels of RXFP1 (determined by RT-PCR); endogenous in cells; host or cells: OVCAR5 (from NIH, NCI-60 panel). (Time-resolved FRET reads energy transfer from a long-lived donor to a nearby acceptor.)
Description: OVCAR5 cells were grown in complete medium (RPMI 1640 + 10% Fetal Calf serum + 1% Penicillin/Streptomycin) at 37 °C and 5% CO2 in a humidified incubator. OVCAR5 cells were detached with accutase for 5 min and were plated in 384-well plates at a density of 8000 cells/well.
(§1) Cells were plated in low-volume 384-well plates at a density of 4000 cells/well for EA.hy926_RXFP1 cells or 8000 cells/well for OVCAR5 cells in a final volume of 5 µL. The plates were briefly centrifuged at 800 rpm to allow the cell suspension to move to the bottom of the wells and then incubated for 24 h at 37 °C in 5% CO2. 5µL of the diluted compounds were then transferred in 384-well plate containing 5µL of cells in test medium. The assay plates were incubated for 30 min at 37 °C under 5% CO2. After 30 min the reaction was stopped by addition of HTRF revelation reagents with a multidrop dispenser. […]
(§2) After overnight incubation at room temperature, HTRF signal was read at 620 and 665 nm on Phera Star (BMG LAbtech) plate reader. The HTRF signal was calculated as follows: ratio HTRF = [(signal 665 nm)/(signal 620 nm)] × 10^4. […]
(§3) Relative EC50s (EC50rel) were determined with SAS procedure NLIN in SAS system release 9.4 under Unix via Biost@t-SPEED-LTS v2.4 internal software using the 4-parameter logistic model[47]. […]

Assay [2] addresses T1, RXFP1. Description: cAMP HTRF assay in EA.hy926_hRXFP1 cells. More on the design: expressed in transfected cells; host or cells: EA.hy926 (ATCC CRL-2922), lentiviral transduction, puromycin selection.
Description: EA.hy926 or EA.hy926_RXFP1 were grown in complete growth medium (DMEM + 10% Fetal Calf serum + 1% Penicillin/Streptomycin + puromycin 0.5 µg/mL) at 37 °C and 5% CO2 in a humidified incubator. When cells reached 80–90% confluency, cells were detached from plastic using Trypsin–EDTA and were plated in 96 or 384-well plates according to the test.
as §1, §2, §3
The target in a further assay is T2, rat RXFP1 (Rattus norvegicus, UniProt Q6R6I6).
T2 construct: expressed in transfected cells
T2 sequence (Q6R6I6 1-758): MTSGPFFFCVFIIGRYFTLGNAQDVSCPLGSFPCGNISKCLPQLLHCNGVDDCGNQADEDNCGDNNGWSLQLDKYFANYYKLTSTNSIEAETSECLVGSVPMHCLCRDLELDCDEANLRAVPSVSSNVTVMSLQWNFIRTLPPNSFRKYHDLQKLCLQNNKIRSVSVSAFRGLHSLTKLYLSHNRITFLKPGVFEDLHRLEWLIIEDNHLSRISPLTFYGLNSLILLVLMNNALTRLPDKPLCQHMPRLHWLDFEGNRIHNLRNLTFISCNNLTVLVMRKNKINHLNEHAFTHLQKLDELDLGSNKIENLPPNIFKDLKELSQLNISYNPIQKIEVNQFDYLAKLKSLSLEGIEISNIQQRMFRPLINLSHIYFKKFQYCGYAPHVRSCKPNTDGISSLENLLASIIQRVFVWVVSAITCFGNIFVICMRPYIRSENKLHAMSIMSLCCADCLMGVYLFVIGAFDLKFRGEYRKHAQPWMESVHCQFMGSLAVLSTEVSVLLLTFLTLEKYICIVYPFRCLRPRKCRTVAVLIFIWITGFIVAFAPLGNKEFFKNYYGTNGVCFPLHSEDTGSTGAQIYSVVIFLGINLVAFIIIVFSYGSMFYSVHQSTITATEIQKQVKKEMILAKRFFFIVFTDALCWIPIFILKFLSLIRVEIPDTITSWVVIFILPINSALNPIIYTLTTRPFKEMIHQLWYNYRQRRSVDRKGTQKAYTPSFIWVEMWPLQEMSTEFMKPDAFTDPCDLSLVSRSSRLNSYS
Briefly: cAMP HTRF assay in HEK_ratRXFP1 cells.

Turning to `CCCCCCCCCCCCCCCCCC(=O)N[C@@H](CCC(=O)N[C@@H](CCC(=O)N[C@@H](CCC(=O)NCCOCCOCC(=O)NCCOCCOCC(=O)NCCOCCOCC(=O)NCCCC[C@H](NC(=O)[C@H](CCCCNC(C)=O)NC(=O)[C@H](CCCCN)NC(=O)[C@H](CCCNC(=N)N)NC(=O)C(C)(C)NC(=O)[C@H](CO)NC(=O)[C@H](Cc1c[nH]c2ccccc12)NC(=O)[C@@H](NC(=O)[C@H](CO)NC(=O)[C@H](CCCC)NC(=O)CNC(=O)[C@H](CCC(=O)O)NC(=O)C(C)(C)NC(=O)C(C)(C)NC(=O)[C@@H](NC(=O)[C@H](CCCCNC(C)=O)NC(=O)[C@H](C)NC(=O)[C@H](CCCNC(=N)N)NC(=O)[C@@H](NC(=O)[C@H](CCCCN)NC(=O)[C@H](CCC(=O)O)NC(=O)[C@H](CCCNC(=N)N)NC(=O)CNC(=O)[C@H](CCC(=O)O)NC(=O)[C@H](CC(C)C)NC(C)=O)C(C)C)[C@@H](C)CC)[C@@H](C)O)C(N)=O)C(=O)O)C(=O)O)C(=O)O` [SA10SC-RLX] (Ac-LEGREKVRAK(Ac)I[Aib][Aib]EG[Nle]STWS[Aib]RKK(Ac)K([AEEA-AEEA-AEEA-γGlu-γGlu-γGlu-Stearoyl])-NH2), the Emax on RXFP1 [1] (OVCAR-5, read-out: Emax (%) ± SEM cAMP) was 84.1 ± 1.1%; on RXFP1 [2] (read-out: Emax (%) ± SEM cAMP), 93.7 ± 1.1%; on rat RXFP1 (read-out: Emax (%) ± SEM cAMP), 68.5 ± 2.8%.

For the compound relaxin, the “Emax (%) ± SEM cAMP” value at RXFP1 [1] (OVCAR5 cells, % of 100 nM relaxin response, n = 6) is given as 96.2 ± 0.8%; on RXFP1 [2] (EA.hy926_hRXFP1 cells, % of 100 nM relaxin response, n = 5) it was 100.1 ± 0.7%; on rat RXFP1 (HEK_ratRXFP1 cells, % of 100 nM relaxin response, n = 6), 95.6 ± 0.8%. For the same compound, a half-maximal effect with rat RXFP1 (HEK_ratRXFP1 cells, geometric mean of relative EC50 with 95% CI, n = 6) (EC50) was put at 1.4 nM.
